From patent US20240358693A1, “METHODS OF TREATING PAIN” (Aisa Pharma, Inc., priority 2023, published 2024)

System: participants with SSc-RP
Test: Scleroderma Health Assessment Questionnaire (SHAQ): disability indices and visual analog scales
Type: in vivo, human
Conditions: Day 12
From the text: The standard, validated, patient reported outcome measures tool for SSc patients, the Scleroderma Health Assessment Questionnaire (SHAQ), will be used to assess the participant qualify of life. Details are attached in the Appendix. The participant quality of life will be scored, and a disability index calculated for each questionnaire completed by the patient at Screening and each in-clinic visit. The absolute change in participant quality of life from baseline to the end of each dosing period will be calculated similar to frequency data as before.
The SHAQ includes a Raynaud's VAS, which will be reported at screening and each in-clinic visit. The absolute change in Raynaud-VAS, assessed by the participants response to the SHAQ question ‘In the past 7 days, how much have your Raynaud's interfered with your daily activities?’ at baseline and the end of each dosing period will be calculated similar to frequency data as before.
The SHAQ is used to calculate a Disability Index to assess the participant qualify of life. The eight categories assessed by the Disability Index are 1) dressing and grooming, 2) arising, 3) eating, 4) walking, 5) hygiene, 6) reach, 7) grip, and 8) common daily activities. For each of these categories, patients report the amount of difficulty they have in performing two or three specific activities.
There are four possible responses for the Disability Index questions: • Without any difficulty=0 • With some difficulty=1 • With much difficulty=2 • Unable to do=3. • The highest score reported by the patient for any component question of the eight categories determines the score for that category. • If a component question is left blank or the response is too ambiguous to assign a score, then the score for that category is determined by the remaining completed question(s). • If all component questions are blank or if more than one answer is given, then follow up with the respondent is required. • If the respondent's mark is between the response columns, then move it to the closest one. If it's directly between the two, move it to the higher one.
Each of the disability items on the SHAQ has a companion aids/devices variable that is used to record what type(s) of assistance, if any, the participant uses for his/her usual activities. These variables (see below) are coded as follows: • 0=No assistance is needed. • 1=A special device is used by the patient in his/her usual activities. • 2=The patient usually needs help from another person. • 3=The patient usually needs BOTH a special device AND help from another person.
The scoring variables and scoring rules permit the computation of two disability indices, the Standard Disability Index and the Alternative Disability Index.
This question results in a new set of category scores that are computed by adjusting the score for each category, if necessary, based on the patient's use of an aid or device or assistance for that category. If either devices and/or help from another person are checked for a category, the score is set to “2”, unless the score is already “3” (i.e., scores of “0” or “1” are increased to “2”). For example, if the highest score for the dressing category is “1”, and the patient says they use a device for dressing, the computed category score would be “2”. The sum of the computed categories scores is then calculated and divided by the number of categories answered. This gives a score in the 0 to 3 range.
The aid and device variables are not used to calculate the alternative disability index; it is calculated by adding the scores for each of the categories and dividing by the number of categories answered. This gives a score in the 0 to 3 range.
The standard, validated, patient reported outcome measures tool for SSc patients, the SHAQ, was collected at the time points specified in the study schedules (FIG. 2 and FIGS. 4A and 4B) to assess the participant's quality of life. The SHAQ included a Raynaud's VAS that will also be reported separately.

[1] = Pooled Cilnidipine 20 mg and Cilnidipine 20 mg + Tadalafil 5 mg (N = 8), PP Population Part A
[2] = Pooled Cilnidipine (N = 8), PP Population Part A
[3] = mITT Part A, SSc patients, cilnidipine 10 mg and/or tadalafil 5 mg as in the arm

## COCCOC(=O)C1=C(C)NC(C)=C(C(=O)OC/C=C/c2ccccc2)C1c1cccc([N+](=O)[O-])c1 (stereo not shown) [Cilnidipine, cilnidipine]
[1]
  SHAQ Visual Analogue Scale - Pain, Change from Baseline, Median: −0.500
  SHAQ Visual Analogue Scale - Pain, Percent Change from Baseline, Mean: −25.85%
  SHAQ Visual Analogue Scale - Pain, Percent Change from Baseline, Median: −48.78%
  SHAQ Visual Analogue Scale - Raynaud's, Change from Baseline, Mean: −1.013
  SHAQ Visual Analogue Scale - Raynaud's, Change from Baseline, Median: −0.650
  SHAQ Visual Analogue Scale - Raynaud's, Percent Change from Baseline, Mean: −32.40%
  SHAQ Visual Analogue Scale - Raynaud's, Percent Change from Baseline, Median: −37.35%
[2]
  SHAQ Visual Analogue Scale - Breathing Problems, Change from Baseline, Mean: −0.388
  SHAQ Visual Analogue Scale - Breathing Problems, Change from Baseline, Median: 0.000
  SHAQ Visual Analogue Scale - Breathing Problems, Percent Change from Baseline, Mean: −0.22%
  SHAQ Visual Analogue Scale - Breathing Problems, Percent Change from Baseline, Median: −16.00%
  SHAQ Visual Analogue Scale - Finger Ulcers, Change from Baseline, Mean: −0.643
  SHAQ Visual Analogue Scale - Finger Ulcers, Change from Baseline, Median: 0.000
  SHAQ Visual Analogue Scale - Finger Ulcers, Percent Change from Baseline, Mean: −17.08%
  SHAQ Visual Analogue Scale - Finger Ulcers, Percent Change from Baseline, Median: −50.82%
  SHAQ Visual Analogue Scale - Intestinal Problems, Change from Baseline, Mean: −0.863
  SHAQ Visual Analogue Scale - Intestinal Problems, Change from Baseline, Median: −0.050
  SHAQ Visual Analogue Scale - Intestinal Problems, Percent Change from Baseline, Mean: −43.69%
  SHAQ Visual Analogue Scale - Intestinal Problems, Percent Change from Baseline, Median: −66.06%
  SHAQ Visual Analogue Scale - Overall Disease Severity, Change from Baseline, Mean: −1.450
  SHAQ Visual Analogue Scale - Overall Disease Severity, Change from Baseline, Median: −1.550
  SHAQ Visual Analogue Scale - Overall Disease Severity, Percent Change from Baseline, Mean: −61.10%
  SHAQ Visual Analogue Scale - Overall Disease Severity, Percent Change from Baseline, Median: −60.00%
  SHAQ Visual Analogue Scale - Pain, Change from Baseline, Mean: −0.375
  SHAQ Visual Analogue Scale - Pain, Change from Baseline, Median: −0.250
  SHAQ Visual Analogue Scale - Pain, Percent Change from Baseline, Mean: −23.98%
  SHAQ Visual Analogue Scale - Pain, Percent Change from Baseline, Median: −41.18%
  SHAQ Visual Analogue Scale - Raynaud's, Change from Baseline, Mean: −0.438
  SHAQ Visual Analogue Scale - Raynaud's, Change from Baseline, Median: −0.600
  SHAQ Visual Analogue Scale - Raynaud's, Percent Change from Baseline, Mean: −18.62%
  SHAQ Visual Analogue Scale - Raynaud's, Percent Change from Baseline, Median: −33.33%
[3]
  SHAQ Alternative Disability Index, Change from Baseline, Mean: 0.083
  SHAQ Alternative Disability Index, Change from Baseline, Median: 0.000
  SHAQ Alternative Disability Index, In-Clinic Visit (Day 12), Mean: 0.750
  SHAQ Alternative Disability Index, In-Clinic Visit (Day 12), Median: 1.000
  SHAQ Alternative Disability Index, Percent Change from Baseline, Mean: 15.87%
  SHAQ Alternative Disability Index, Percent Change from Baseline, Median: 15.87%
  SHAQ Visual Analogue Scale - Finger Ulcers, Change from Baseline, Mean: −0.567
  SHAQ Visual Analogue Scale - Finger Ulcers, Change from Baseline, Median: −0.700
  SHAQ Visual Analogue Scale - Finger Ulcers, In-Clinic Visit (Day 12), Mean: 0.367
  SHAQ Visual Analogue Scale - Finger Ulcers, In-Clinic Visit (Day 12), Median: 0.000
  SHAQ Visual Analogue Scale - Finger Ulcers, Percent Change from Baseline, Mean: −69.44%
  SHAQ Visual Analogue Scale - Finger Ulcers, Percent Change from Baseline, Median: −69.44%
  SHAQ Visual Analogue Scale - Intestinal Problems, Change from Baseline, Mean: −2.467
  SHAQ Visual Analogue Scale - Intestinal Problems, Change from Baseline, Median: −3.000
  SHAQ Visual Analogue Scale - Intestinal Problems, In-Clinic Visit (Day 12), Mean: 1.467
  SHAQ Visual Analogue Scale - Intestinal Problems, In-Clinic Visit (Day 12), Median: 0.600
  SHAQ Visual Analogue Scale - Intestinal Problems, Percent Change from Baseline, Mean: −66.06%
  SHAQ Visual Analogue Scale - Intestinal Problems, Percent Change from Baseline, Median: −66.06%
  SHAQ Visual Analogue Scale - Overall Disease Severity, Change from Baseline, Mean: −1.067
  SHAQ Visual Analogue Scale - Overall Disease Severity, Change from Baseline, Median: −1.500
  SHAQ Visual Analogue Scale - Overall Disease Severity, In-Clinic Visit (Day 12), Mean: 2.433
  SHAQ Visual Analogue Scale - Overall Disease Severity, In-Clinic Visit (Day 12), Median: 1.900
  SHAQ Visual Analogue Scale - Overall Disease Severity, Percent Change from Baseline, Mean: −35.44%
  SHAQ Visual Analogue Scale - Overall Disease Severity, Percent Change from Baseline, Median: −35.44%
  SHAQ Visual Analogue Scale - Pain, Change from Baseline, Mean: 0.100
  SHAQ Visual Analogue Scale - Pain, Change from Baseline, Median: 0.000
  SHAQ Visual Analogue Scale - Pain, In-Clinic Visit (Day 12), Mean: 2.167
  SHAQ Visual Analogue Scale - Pain, In-Clinic Visit (Day 12), Median: 2.900
  SHAQ Visual Analogue Scale - Pain, Percent Change from Baseline, Mean: 5.77%
  SHAQ Visual Analogue Scale - Pain, Percent Change from Baseline, Median: 5.77%
